In patent US20240116845A1, “INDENE COMPOUNDS, PHARMACEUTICAL COMPOSITIONS THEREOF, AND THEIR THERAPEUTIC APPLICATIONS” (NucMito Pharmaceuticals Co., Ltd., priority 2021, published 2024):

How the values were obtained:
Type in all cases: cell-based
[1] = system: MDA-MB-231 (breast cancer); test: Antiproliferative activity, CCK-8 cell viability; settings: Homo sapiens, 72 h, read-out: Inhibition of Cancerous Cells, MDA-MB-231; for inhibition at 3.3 µM: compound concentration of 3.3 μM; for inhibition at 10 µM: compound concentration of 10 μM; for inhibition at 30 µM: compound concentration of 30 μM
In short: (§1)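 Viability relative to DMSO controls came from CCK-8 absorbance at 450 nm after 72 h exposure at 37°C. Compound concentrations were 3.3, 10 or 30 μM, in DMEM plus 10% FBS. Results are categorised by inhibition level: at least 50%, 30 to under 50%, or under 30%.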

[2] = system: A549 (lung adenocarcinoma); test: Antiproliferative activity, CCK-8 cell viability; settings: Homo sapiens, 72 h, read-out: Inhibition of Cancerous Cells, A549; for inhibition at 3.3 µM: compound concentration of 3.3 μM; for inhibition at 10 µM: compound concentration of 10 μM; for inhibition at 30 µM: compound concentration of 30 μM
[3] = system: B16F10 (malignant melanoma); test: Antiproliferative activity, CCK-8 cell viability; settings: Mus musculus, B16-F10, 72 h, read-out: Inhibition of Cancerous Cells, B16F10; for inhibition at 3.3 µM: compound concentration of 3.3 μM; for inhibition at 10 µM: compound concentration of 10 μM; for inhibition at 30 µM: compound concentration of 30 μM
In short: as §1

HeLa (cervical cancer) = test: Antiproliferative activity, CCK-8 cell viability; settings: Homo sapiens, 72 h, read-out: Inhibition of Cancerous Cells, HELA; for inhibition at 3.3 µM: compound concentration of 3.3 μM; for inhibition at 10 µM: compound concentration of 10 μM; for inhibition at 30 µM: compound concentration of 30 μM
HepG2 (liver cancer) = test: Antiproliferative activity, CCK-8 cell viability; settings: Homo sapiens, 72 h, read-out: Inhibition of Cancerous Cells, HepG2; for inhibition at 3.3 µM: compound concentration of 3.3 μM; for inhibition at 10 µM: compound concentration of 10 μM; for inhibition at 30 µM: compound concentration of 30 μM
In short: as §1

SW480 (colon cancer) = test: Antiproliferative activity, CCK-8 cell viability; settings: Homo sapiens, 72 h, read-out: Inhibition of Cancerous Cells, SW480; for inhibition at 3.3 µM: compound concentration of 3.3 μM; for inhibition at 10 µM: compound concentration of 10 μM; for inhibition at 30 µM: compound concentration of 30 μM
In short: as §1

[4] = system: A431 (epidermoid carcinoma); test: Antiproliferative activity, CCK-8 cell viability; settings: Homo sapiens, A-431, 72 h, read-out: Inhibition of Cancerous Cells, A431; for inhibition at 3.3 µM: compound concentration of 3.3 μM; for inhibition at 10 µM: compound concentration of 10 μM; for inhibition at 30 µM: compound concentration of 30 μM
In short: as §1

[5] = system: alpha-smooth muscle actin (α-SMA); test: Inhibition of TGF-β induced expression of alpha-smooth muscle actin in CFSC cells (western blot); settings: compound at 10 μM, TGF-β (10 ng/mL), 24 hours
In short: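 Read-out is percent decrease in α-SMA western-blot band intensity, β-actin also probed, relative to TGF-β-only cells. CFSC cells were co-treated for 24 h at 37 °C with 10 ng/mL TGF-β and 10 μM compound in serum-free DMEM.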

SMILES | inhibition at 3.3 µM [1] | inhibition at 10 µM [1] | inhibition at 30 µM [1] | inhibition at 3.3 µM [2] | inhibition at 10 µM [2] | inhibition at 30 µM [2] | inhibition at 3.3 µM [3] | inhibition at 10 µM [3] | inhibition at 30 µM [3] | inhibition at 3.3 µM (HeLa (cervical cancer)) | inhibition at 10 µM (HeLa (cervical cancer)) | inhibition at 30 µM (HeLa (cervical cancer)) | inhibition at 3.3 µM (HepG2 (liver cancer)) | inhibition at 10 µM (HepG2 (liver cancer)) | inhibition at 30 µM (HepG2 (liver cancer)) | inhibition at 3.3 µM (SW480 (colon cancer)) | inhibition at 10 µM (SW480 (colon cancer)) | inhibition at 30 µM (SW480 (colon cancer)) | inhibition at 3.3 µM [4] | inhibition at 10 µM [4] | further results
CC1=C(CC(=O)O)c2cc(F)cc(F)c2/C1=C\c1ccc(Oc2ccc(F)cc2)cc1 [Compound D15, 2-[(1Z)-5,7-Difluoro-2-methyl-1-({4-[4-fluorophenoxy]phenyl}methylidene)-1H-inden-3-yl]acetic acid] | ≥ 50% | ≥ 50% | ≥ 50% | 30 to 50% | ≥ 50% | ≥ 50% | < 30% | 30 to 50% | ≥ 50% | < 30% | ≥ 50% | ≥ 50% | ≥ 50% | ≥ 50% | ≥ 50% | < 30% | ≥ 50% | ≥ 50% | < 30% | 30 to 50% | inhibition at 30 µM [4]: ≥ 50%; inhibition at 10 µM [5]: ≥ 80%
CC1=C(CC(=O)O)c2cc(F)ccc2/C1=C\c1cccc(Oc2ccc(Cl)cc2)c1 [Compound D25, 2-[(1Z)-5-Fluoro-2-methyl-1-({3-[4-chlorophenoxy]phenyl}methylidene)-1H-inden-3-yl]acetic acid] | ≥ 50% | ≥ 50% | ≥ 50% | < 30% | 30 to 50% | ≥ 50% | 30 to 50% | ≥ 50% | ≥ 50% | 30 to 50% | ≥ 50% | ≥ 50% | 30 to 50% | ≥ 50% | ≥ 50% | ≥ 50% | ≥ 50% | ≥ 50% | < 30% | < 30% | inhibition at 30 µM [4]: ≥ 50%; inhibition at 10 µM [5]: ≥ 80%
CC1=C(CC(=O)O)c2cc(F)ccc2/C1=C\c1cccc(Oc2cccc(C(F)(F)F)c2)c1 [Compound D27, 2-[(1Z)-5-Fluoro-2-methyl-1-({3-[3-trifluoromethylphenoxy]phenyl}-methylidene)-1H-inden-3-yl]acetic acid] | ≥ 50% | ≥ 50% | ≥ 50% | 30 to 50% | 30 to 50% | ≥ 50% | < 30% | 30 to 50% | ≥ 50% | < 30% | 30 to 50% | ≥ 50% | ≥ 50% | ≥ 50% | ≥ 50% | 30 to 50% | ≥ 50% | ≥ 50% | < 30% | ≥ 50% | inhibition at 30 µM [4]: ≥ 50%; inhibition at 10 µM [5]: ≥ 80%
COc1ccc2c(c1)/C(=C\c1ccc(CN(C)c3ccccc3)cc1)C(C)=C2CC(=O)O [Compound A13, 2-[(1Z)-6-Methoxy-2-methyl-1-[(4-{[methyl(phenyl)amino]methyl}phenyl)-methylidene]-1H-inden-3-yl]acetic acid] | < 30% | 30 to 50% | ≥ 50% | 30 to 50% | 30 to 50% | ≥ 50% | < 30% | 30 to 50% | ≥ 50% | < 30% | 30 to 50% | ≥ 50% | ≥ 50% | ≥ 50% | ≥ 50% | ≥ 50% | 30 to 50% | ≥ 50% | ≥ 50% | ≥ 50% | inhibition at 30 µM [4]: ≥ 50%; inhibition at 10 µM [5]: ≥ 80%
